Test results from the NIST ThermoML archive (doi:10.1021/je0497000).
Numbers after ± are expanded uncertainties.

Key:
[1] = Liquid; for mass density / speed of sound: 298.15 K, 101.3 kPa
[2] = xn = mol fraction of the nth substance listed; conditions: 298.15 K, 101.3 kPa, Liquid

CCC(C)=O [butanone] gave a mass density [1] of 799.7 ± 0.35 kg/m3, a speed of sound [1] of 1192 ± 2 m/s and a Normal boiling temperature [1] of 79.63 ± 0.13 °C.

Work on CC(C)=O [acetone] yielded a mass density [1] of 784.37 ± 0.31 kg/m3, a speed of sound [1] of 1162 ± 2 m/s and a Normal boiling temperature [1] of 56.12 ± 0.13 °C.

With COC(=O)OC [dimethyl carbonate] the mass density [1] was 1063.33 ± 0.56 kg/m3, the speed of sound [1] was 1198 ± 2 m/s and the Normal boiling temperature [1] was 90.31 ± 0.13 °C.

With CCCC(C)=O [pentan-2-one] + COC(=O)OC the mass density ([2]; x1 = 0.0498) was 1046.71 ± 0.53 kg/m3, the speed of sound ([2]; x1 = 0.0498) was 1199 ± 2 m/s and the mass density ([2]; x1 = 0.1004) was 1030.33 ± 0.51 kg/m3. For the same molecule, the speed of sound ([2]; x1 = 0.1004) was 1198 ± 2 m/s, the mass density ([2]; x1 = 0.1996) was 999.49 ± 0.47 kg/m3 and the speed of sound ([2]; x1 = 0.1996) was 1197 ± 2 m/s. For the same molecule, the mass density ([2]; x1 = 0.3009) was 969.77 ± 0.44 kg/m3, the speed of sound ([2]; x1 = 0.3009) was 1198 ± 2 m/s and the mass density ([2]; x1 = 0.398) was 942.67 ± 0.42 kg/m3. For the same molecule, the speed of sound ([2]; x1 = 0.398) was 1198 ± 2 m/s, the mass density ([2]; x1 = 0.5036) was 914.75 ± 0.41 kg/m3 and the speed of sound ([2]; x1 = 0.5036) was 1200 ± 2 m/s. For the same molecule, the mass density ([2]; x1 = 0.6017) was 890.1 ± 0.38 kg/m3, the speed of sound ([2]; x1 = 0.6017) was 1201 ± 2 m/s and the mass density ([2]; x1 = 0.7046) was 865.52 ± 0.36 kg/m3. It also gave a speed of sound ([2]; x1 = 0.7046) of 1203 ± 2 m/s, a mass density ([2]; x1 = 0.8012) of 843.59 ± 0.35 kg/m3 and a speed of sound ([2]; x1 = 0.8012) of 1206 ± 2 m/s. It also gave a mass density ([2]; x1 = 0.901) of 821.94 ± 0.35 kg/m3, a speed of sound ([2]; x1 = 0.901) of 1209 ± 2 m/s and a mass density ([2]; x1 = 0.9504) of 811.55 ± 0.35 kg/m3. For the same molecule, the speed of sound ([2]; x1 = 0.9504) was 1211 ± 2 m/s, the mass density ([2]; x1 = 1) was 801.39 ± 0.35 kg/m3 and the speed of sound ([2]; x1 = 1) was 1212 ± 2 m/s.

For COC(=O)OC [dimethyl carbonate] + CCC(C)=O, the mass density ([2]; x2 = 0) was 1063.33 ± 0.56 kg/m3 and the speed of sound ([2]; x2 = 0) was 1198 ± 2 m/s.

Work on COC(=O)OC [dimethyl carbonate] + CC(C)=O yielded a mass density ([2]; x2 = 0) of 1063.33 ± 0.56 kg/m3, a speed of sound ([2]; x2 = 0) of 1198 ± 2 m/s and a mass density ([2]; x2 = 0.0447) of 1052.64 ± 0.53 kg/m3. It also gave a speed of sound ([2]; x2 = 0.0447) of 1196 ± 2 m/s, a mass density ([2]; x2 = 0.0906) of 1041.54 ± 0.51 kg/m3 and a speed of sound ([2]; x2 = 0.0906) of 1195 ± 2 m/s. It also gave a mass density ([2]; x2 = 0.1886) of 1017.22 ± 0.45 kg/m3, a speed of sound ([2]; x2 = 0.1886) of 1192 ± 2 m/s and a mass density ([2]; x2 = 0.2886) of 991.68 ± 0.4 kg/m3. For the same molecule, the speed of sound ([2]; x2 = 0.2886) was 1188 ± 2 m/s, the mass density ([2]; x2 = 0.3941) was 963.86 ± 0.37 kg/m3 and the speed of sound ([2]; x2 = 0.3941) was 1184 ± 2 m/s. It also gave a mass density ([2]; x2 = 0.4933) of 936.83 ± 0.35 kg/m3, a speed of sound ([2]; x2 = 0.4933) of 1180 ± 2 m/s and a mass density ([2]; x2 = 0.5988) of 907.17 ± 0.32 kg/m3. The speed of sound ([2]; x2 = 0.5988) was 1176 ± 2 m/s, the mass density ([2]; x2 = 0.7021) was 877.06 ± 0.3 kg/m3 and the speed of sound ([2]; x2 = 0.7021) was 1172 ± 2 m/s. It also gave a mass density ([2]; x2 = 0.7974) of 848.41 ± 0.29 kg/m3, a speed of sound ([2]; x2 = 0.7974) of 1168 ± 2 m/s and a mass density ([2]; x2 = 0.9053) of 814.88 ± 0.29 kg/m3. For the same molecule, the speed of sound ([2]; x2 = 0.9053) was 1165 ± 2 m/s, the mass density ([2]; x2 = 0.9534) was 799.51 ± 0.3 kg/m3 and the speed of sound ([2]; x2 = 0.9534) was 1163 ± 2 m/s.

Molecule CCC(C)=O [butanone] + COC(=O)OC has a mass density ([2]; x1 = 0.0499) of 1049.31 ± 0.54 kg/m3, a speed of sound ([2]; x1 = 0.0499) of 1199 ± 2 m/s and a mass density ([2]; x1 = 0.0999) of 1035.29 ± 0.51 kg/m3. The speed of sound ([2]; x1 = 0.0999) was 1198 ± 2 m/s, the mass density ([2]; x1 = 0.1994) was 1007.79 ± 0.47 kg/m3 and the speed of sound ([2]; x1 = 0.1994) was 1196 ± 2 m/s. For the same molecule, the mass density ([2]; x1 = 0.2996) was 980.5 ± 0.44 kg/m3, the speed of sound ([2]; x1 = 0.2996) was 1194 ± 2 m/s and the mass density ([2]; x1 = 0.3986) was 953.88 ± 0.42 kg/m3. It also gave a speed of sound ([2]; x1 = 0.3986) of 1192 ± 2 m/s, a mass density ([2]; x1 = 0.5027) of 926.3 ± 0.41 kg/m3 and a speed of sound ([2]; x1 = 0.5027) of 1191 ± 2 m/s. The mass density ([2]; x1 = 0.6014) was 900.51 ± 0.38 kg/m3, the speed of sound ([2]; x1 = 0.6014) was 1190 ± 2 m/s and the mass density ([2]; x1 = 0.7102) was 872.49 ± 0.36 kg/m3. It also gave a speed of sound ([2]; x1 = 0.7102) of 1190 ± 2 m/s, a mass density ([2]; x1 = 0.8038) of 848.69 ± 0.35 kg/m3 and a speed of sound ([2]; x1 = 0.8038) of 1191 ± 2 m/s. For the same molecule, the mass density ([2]; x1 = 0.9043) was 823.48 ± 0.35 kg/m3, the speed of sound ([2]; x1 = 0.9043) was 1191 ± 2 m/s and the mass density ([2]; x1 = 0.9514) was 811.75 ± 0.35 kg/m3. It also gave a speed of sound ([2]; x1 = 0.9514) of 1191 ± 2 m/s, a mass density ([2]; x1 = 1) of 799.7 ± 0.35 kg/m3 and a speed of sound ([2]; x1 = 1) of 1192 ± 2 m/s.

For COC(=O)OC [dimethyl carbonate] + CCCC(C)=O, the mass density ([2]; x2 = 0) was 1063.33 ± 0.56 kg/m3 and the speed of sound ([2]; x2 = 0) was 1198 ± 2 m/s.

CCCC(C)=O [pentan-2-one] showed a mass density [1] of 801.39 ± 0.35 kg/m3, a speed of sound [1] of 1212 ± 2 m/s and a Normal boiling temperature [1] of 102.21 ± 0.13 °C.

For CC(C)=O [acetone] + COC(=O)OC, the mass density ([2]; x1 = 1) was 784.37 ± 0.31 kg/m3 and the speed of sound ([2]; x1 = 1) was 1162 ± 2 m/s.
